Laboratory results reported in patent publication US7348305B2, “Inhibitor of cardiac tachyarrhythmias” (Department of Veterans Affairs, Rehabilitation, priority 2003, dated 2008).
“Also recorded” adds a separate entry of the source.

Tests used:
[1] = test system: myocardial infarct; assay: Model 2: 2-hr LAD occlusion/4-hr reperfusion, infarct size; assay type: in vivo, dog
Protocol: Model 2: Acute changes in infarct size. Seventeen 15-22 kg male mongrel dogs were anesthetized and respired as described above. Body temperature was maintained using a temperature-controlled operative table bed and fluid replacement. Two EKG leads (L-II and V-3) and arterial pressure (left femoral) were continuously monitored during the experiment. […] After 4 hours of reperfusion, the heart was removed and rinsed with room-temperature Tyrode's solution. Cannulae were placed into the proximal aorta and into the LAD artery at the site of occlusion for perfusion with Evans blue (0.1%) and TTZ (0.1%), respectively, at equal pressure (80 mmHg). The area at risk of infarction was delineated by its red color (surviving myocardium) or a pale color (infarct) with the remaining heart stained by Evan's blue. The heart was then sliced to provide a 5 mm thick section parallel to the AV groove. After storage overnight in buffered formalin, infarcted tissue, surviving myocardium within the anatomic area at risk of infarction, and left ventricle outside the area at risk of infarction were separated using a scalpel blade. Infarct mass, area at risk of infarction, left ventricular mass, and total heart mass were determined gravimetrically. Anti-TNFα Treatment: A dosage of 2 mg/kg hTNFR:Fc (supplied as etanercept, Amgen, Inc, Thousand Oaks, Calif.) or saline were injected IV into a forepaw vein at 24-hr and again 1-hr prior to LAD ligation. […] This dosage was used after consultation with the pharmaceutical corporate pharmacology section and based on unpublished internal data that this dosage would provide maximal sequestration of tissue and circulating TNFα.

[2] = test system: β-adrenergic receptor kinase (βARK); assay: βARK immunoblot of EBZ tissue 24 hr after LAD ligation (Model 1); assay type: in vivo, dog; conditions: 24 hr after LAD ligation
Protocol: βARK immunoblots were used to estimate βARK expression (Yu et al., 2000).
Western Blot Analysis: Assessment of βARK content was conducted using standard SDS-PAGE and immunoblot techniques. Samples containing 100 μg of protein from myocardial extracts were electrophoresed using 10% SDS-PAGE and transferred to nitrocellulose membranes. The membrane was incubated with monoclonal anti-βARK (Upstate Biotechnology, Inc, Lake Placid, N.Y.), followed by exposure to peroxidase-linked anti-mouse IgG. Antibody binding was detected by a chemiluminescent method (ECL, Amersham Biosciences Corp, Piscataway, N.J.). Quantification of immunoreactive proteins was performed by densitometric scanning and with Image QuaNT software (Molecular Dynamics).
β-ARK, Proteasome and Ubiquitin Expression Assays: β-ARK, ubiquitinated β-ARK and proteasome in EBZ and RS tissues was determined by Western blot analysis. Samples were adjusted after protein concentration was assayed (BCA, Pierce Chemicals) to provide identical loads. 100 μg protein was combined with equal volume of SDS sample buffer, and electrophoresed on a 10% polyacrylamide gel. The blocked membranes were incubated with mouse anti β-ARK monoclonal antibody (Santa Cruz Biotechnology, Santa Cruz, Calif.) for 1-h at room temperature followed by anti-mouse IgG coupled to horseradish peroxidase and developed using an ECL western blotting kit (Amersham). The bands were scanned, stripped and reprobed with mouse anti-ubiquitin antibody (Santa Cruz Biotechnology, Santa Cruz, Calif.). The membrane was rescanned, stripped a second time and reprobed with rabbit anti-proteasome 20S C2 subunit polyclonal antibody (A.G. Scientific, Inc. CA). A separate control gel was included that was similarly treated, but reprobed with the identical Ab and band quality and density compared to the previous data obtained before stripping. Quantitation of immunoreactive bands was performed by densitometric scanning using ImageQuant software (Molecular Dynamics).

[3] = test system: congestive heart failure; conditions: cited from earlier work
[4] = test system: ventricular tachyarrhythmias following LAD coronary artery ligation; assay: Model 1: two-stage LAD coronary artery ligation, Holter EKG monitoring 2-24 hr (ventricular triplets, sustained VT/VF, death); assay type: in vivo, dog
Protocol: The two-stage ligation procedure results in a very low incidence of ventricular fibrillation (<5-10%) during the initial 6 hours following coronary artery occlusion (Harris et al., 1951). Almost all ventricular fibrillation occurs during the initial 30 minutes with a high proportion of successful defibrillation. Ambulatory EKG monitoring is performed over the 2-24 hr period following coronary artery ligation. During the 6-24 hr period, a 25-40% incidence of rapid monomorphic ventricular tachycardia (385±15/min) leading to ventricular fibrillation is observed at 13.3±0.8 hours post-LAD ligation (FIG. 1), with a mean duration of monomorphic ventricular tachycardia preceding ventricular fibrillation of 66±7 sec. When provocative ventricular pacing is performed at 24 hours, however, the reentrant substrate supporting sustained ventricular tachycardia is present in more than 80% of the surviving dogs with no difference in rate between spontaneous and pacing-induced sustained monomorphic ventricular tachycardias (FIG. 3).
In the 24-hr Infarct (Model 1) Studies, each control and etanercept pretreated animal was monitored for ventricular arrhythmias using a Holter 2-lead recording for the duration of time following LAD ligation. […] In the saline control group, 4 animals died at 11-24 hours post ligation. […]
Model 1: Electrophysiologic correlates of myocardial infarction over a 24-hr period. Eighteen 15-22 kg male mongrel dogs were anesthetized with IV sodium pentobarbital (30 mg/kg). A cuffed endotracheal tube was inserted and the animals were ventilated with room air using a volume-cycled respirator. […] The dogs were extubated and allowed to awaken in a temperature-controlled, humidified small animal post-operative recovery unit. They were given nalbuphine 0.2 mg/kg for post-operative analgesia. During the 2-24 hr period following LAD ligation, Holter monitoring was performed and the two-lead EKG was recorded on magnetic tape. Dogs were re-anesthetized with sodium pentobarbital at 24-hr. The thoracotomy was reopened and the heart was removed and perfused with ice-cold Tyrode's buffer via the left main coronary artery. The outer 0.5-1.5 mm EBZ tissue overlying the infarct was shaved and a longitudinal sample of tissue from the LAD region was stained with triphenyltetrazolium chloride (0.1%) to determine viability of the EBZ. Triphenyltetrazolium (TTZ) forms a brick-red precipitate in the presence of active intracellular dehydrogenases, delineating vital tissue. Non-viable tissues are not stained and remain a pale color. […] Tissue samples from the RS, the EBZ and the infarct tissue were dissected rapidly on an ice-cold surface, placed in freezer vials, and frozen in liquid nitrogen. These samples were then stored at −70° C. for later assay.
EKG Analysis: Full disclosure EKG records were obtained at 10 mm/sec for the entire 2-24 hour post-occlusion period. All measurements and calculations were made by direct visual observation and manual counting.
Anti-TNFα Treatment: A dosage of 2 mg/kg hTNFR:Fc (supplied as etanercept, Amgen, Inc, Thousand Oaks, Calif.) or saline were injected IV into a forepaw vein at 24-hr and again 1-hr prior to LAD ligation. […] This dosage was used after consultation with the pharmaceutical corporate pharmacology section and based on unpublished internal data that this dosage would provide maximal sequestration of tissue and circulating TNFα.

[5] = etanercept pretreated, 2-hr occlusion/4-hr reperfusion

Substance: etanercept
- decrease in infarct size (% area at risk) compared to saline [1, 5]: 61%
- decrease in infarct size (% left ventricular mass) compared to saline [1, 5]: 54%
- infarct size, % left ventricular mass (LV) ([1]; etanercept pretreated, 2-hr occlusion/4-hr reperfusion, n=8, saline 13±1): 6±1 % LV
- infarct size, % area at risk (AR) ([1]; etanercept pretreated, 2-hr occlusion/4-hr reperfusion, n=8, saline 38±6): 15±2 % AR
- reduction of infarct size expressed as % left ventricular mass or % area at risk ([1]; etanercept pretreatment, Model 2, approximate summary): approximately 50%
- βARK in EBZ as percentage of unoperated control tissue ([2]; etanercept 2 mg/kg pretreated, immunoblot, n=5, saline 4.3%): 33.8±7.2%
- salvage of βARK in EBZ tissue compared to saline control ([2]; etanercept pretreated): 8 fold
- benefit upon functional status or survival in congestive heart failure ([3]; human clinical trials (Anker et al., 2002)): no significant benefits
- safety of administration in patients with heart failure ([3]; human, in vivo): safe
- fastest ventricular triplet rate observed per hour after LAD ligation (FIG. 18, FIG. 32) ([4]; 4 to 24 hr after LAD ligation): significant reduction
- mortality (dogs died of group) ([4]; 24 hr after LAD ligation, etanercept 2 mg/kg at -24 and -1 hr, bortezomib 0.0875 mg/kg at -1 and +6 hr, anakinra 10 mg/kg at -1 and +12 hr, control 4 of 10, preliminary): 0 of 8
- frequency of very rapid (≧360 bpm) ventricular triplets ([4]; etanercept 2 mg/kg IV 24 and 1 hr before LAD ligation, 4-24 hr (2 to 24 hr) after ligation, n=8, saline 21±6/hr): 6 ± 1 h⁻¹
- average frequency of total rapid (≧300 bpm) ventricular triplets ([4]; etanercept 2 mg/kg IV 24 and 1 hr before LAD ligation, n=8, saline 152±32/hr): 45 ± 8 h⁻¹
- very rapid (≧360 bpm) ventricular triplets versus control (FIG. 31B) ([4]; etanercept 2 mg/kg, bortezomib 0.0875 mg/kg): significant descrease; also recorded: significant decrease
- rapid (>300 bpm) ventricular triplets per hour versus control (FIG. 31A) ([4]; etanercept 2 mg/kg, bortezomib 0.0875 mg/kg, anakinra 10 mg/kg): significant descrease
- idioventricular heart rate on EKG ([4]; etanercept-treated dogs versus saline, after LAD ligation (FIG. 16B)): slower idioventricular heart rate
- development of sustained ventricular tachycardia or fibrillation ([4]; etanercept-treated dogs, four saline-treated dogs developed it at 11-24 hours post ligation): no etanercept-treated dogs developed sustained ventricular tachycardia or fibrillation
